# Assay results published in ChEMBL document CHEMBL6087458, “The Discovery of a Novel AXL/Triple Angiokinase Inhibitor Based on 6-Chloro-Substituted Indolinone and Side Chain Methyl Substitution Inhibiting Pancreatic Cancer Growth and Metastasis” (J Med Chem, 2025).
# Experiments:
# [1] = Cytotoxicity against human HEK293 cells assessed as inhibition of cell growth; assay type: toxicity, cell-based
# [2] = Half life in Sprague-Dawley rat at 5 mg/kg, iv; assay type: ADME, organism-based; conditions: in vivo
# [3] = test system: MDA-MB-231; test: cells; conditions: Homo sapiens, MDA-MB-231, 72 h
# Description: Antiproliferative activity against human MDA-MB-231 cells assessed as cell viability incubated for 72 hrs by MTT assay
# [4] = cells; conditions: Homo sapiens, CDDP-resistant A549 cell, 72 h
# Description: Antiproliferative activity against human CDDP-resistant A549 cell assessed as cell viability incubated for 72 hrs by MTT assay
# [5] = test system: BXPC-3; test: cells; conditions: Homo sapiens, BXPC-3, 72 h
# Description: Antiproliferative activity against human BXPC-3 cells assessed as cell viability incubated for 72 hrs by MTT assay
# [6] = Cytotoxicity against human HK-2 cells assessed as inhibition of cell growth; assay type: toxicity, cell-based
# [7] = test system: NCI-H1975; test: cells; conditions: Homo sapiens, NCI-H1975, 72 h
# Description: Antiproliferative activity against human NCI-H1975 cells assessed as cell viability incubated for 72 hrs by MTT assay
# [8] = Half life in Sprague-Dawley rat at 50 mg/kg, po; assay type: ADME, organism-based; conditions: in vivo
# [9] = AUC (0 to last) in Sprague-Dawley rat at 50 mg/kg, po; assay type: ADME, organism-based; conditions: in vivo, po, 50 mg/kg
# [10] = test system: A549/TR; test: cells; conditions: Homo sapiens, 72 h
# Description: Antiproliferative activity against human A549/Taxol cells assessed as cell viability incubated for 72 hrs by MTT assay
# [11] = Clearance in Sprague-Dawley rat at 5 mg/kg, iv; assay type: ADME, organism-based; conditions: in vivo
# [12] = Cmax in Sprague-Dawley rat at 50 mg/kg, po; assay type: ADME, organism-based; conditions: in vivo
# [13] = Cytotoxicity against human MCF-10A cells assessed as inhibition of cell growth; assay type: toxicity, cell-based
# [14] = Tmax in Sprague-Dawley rat at 50 mg/kg, po; assay type: ADME, organism-based; conditions: in vivo
# [15] = test system: MKN-45; test: cells; conditions: Homo sapiens, MKN-45, 72 h
# Description: Antiproliferative activity against human MKN-45 cells assessed as cell viability incubated for 72 hrs by MTT assay
# [16] = test system: PC-9; test: cells; conditions: Homo sapiens, PC-9, 72 h
# Description: Antiproliferative activity against human PC-9 cells assessed as cell viability incubated for 72 hrs by MTT assay
# [17] = test system: SW480; test: cells; conditions: Homo sapiens, SW480, 72 h
# Description: Antiproliferative activity against human SW480 cells assessed as cell viability incubated for 72 hrs by MTT assay
# [18] = Cytotoxicity against human HaCaT cells assessed as inhibition of cell growth; assay type: toxicity, cell-based
# [19] = Volume of distribution at steady state in Sprague-Dawley rat at 5 mg/kg, iv; assay type: ADME, organism-based; conditions: in vivo, read-out: Vdss
# [20] = test system: BXPC-3; test: Antitumor activity against human BXPC-3 cells xenografted in mouse assessed as tumor growth inhibition at 50 mg/kg, po administered for 14 days; assay type: functional; conditions: BXPC-3, 336 h, time 14 day, read-out: TGI
# [21] = Cytotoxicity against human HUVEC cells assessed as cell viability incubated for 72 hrs by MTT assay; assay type: toxicity, cell-based
# [22] = Cytotoxicity against mouse NIH/3T3 cells assessed as cell viability incubated for 72 hrs by MTT assay; assay type: toxicity, cell-based, NIH3T3
# [23] = test system: BXPC-3; test: Antitumor activity against human BXPC-3 cells xenografted in mouse assessed as reduction in tumor weight at 50 mg/kg, po administered for 14 days; assay type: functional; design: scale not given: the % may be the effect or the level left; conditions: time 14 day
# [24] = Metabolic stability in rat liver microsome assessed as half life measured upto 240 mins by HPLC analysis; assay type: ADME; conditions: liver microsomes
# [25] = test system: Osimertinib-resistant NCI-H1975 cell; test: cells; conditions: Homo sapiens, 72 h
# [26] = AUC (0 to last) in Sprague-Dawley rat at 5 mg/kg, iv; assay type: ADME, organism-based; conditions: in vivo, iv, 5 mg/kg
# [27] = biological target: Tyrosine-protein kinase receptor UFO (Homo sapiens) (UniProt P30530); conditions: dose 100.0 nM
# Chain of Tyrosine-protein kinase receptor UFO (Homo sapiens) (P30530 whole entry): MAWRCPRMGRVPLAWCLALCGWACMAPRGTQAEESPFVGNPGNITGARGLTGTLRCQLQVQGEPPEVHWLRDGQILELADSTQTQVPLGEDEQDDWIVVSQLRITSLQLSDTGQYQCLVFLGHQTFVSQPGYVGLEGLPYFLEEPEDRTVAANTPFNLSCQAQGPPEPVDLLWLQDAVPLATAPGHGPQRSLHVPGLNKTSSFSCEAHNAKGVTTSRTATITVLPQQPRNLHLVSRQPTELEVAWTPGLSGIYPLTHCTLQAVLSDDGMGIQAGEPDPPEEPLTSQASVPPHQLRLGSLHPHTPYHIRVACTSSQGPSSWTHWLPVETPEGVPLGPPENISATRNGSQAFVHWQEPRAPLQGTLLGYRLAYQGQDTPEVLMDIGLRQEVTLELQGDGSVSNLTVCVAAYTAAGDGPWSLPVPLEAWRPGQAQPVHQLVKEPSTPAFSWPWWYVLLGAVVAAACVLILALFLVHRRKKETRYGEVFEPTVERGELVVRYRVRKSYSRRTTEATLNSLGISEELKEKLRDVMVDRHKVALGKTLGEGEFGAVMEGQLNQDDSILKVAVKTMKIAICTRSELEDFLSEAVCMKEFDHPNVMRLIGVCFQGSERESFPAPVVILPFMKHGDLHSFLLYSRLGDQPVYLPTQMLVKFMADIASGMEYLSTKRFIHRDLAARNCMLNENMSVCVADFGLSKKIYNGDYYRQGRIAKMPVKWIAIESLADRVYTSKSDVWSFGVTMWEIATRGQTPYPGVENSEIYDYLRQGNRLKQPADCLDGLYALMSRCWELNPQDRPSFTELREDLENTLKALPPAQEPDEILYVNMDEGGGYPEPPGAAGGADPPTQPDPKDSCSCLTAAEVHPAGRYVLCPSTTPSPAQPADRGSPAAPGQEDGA
# Description: Inhibition of AXL (unknown origin) at 100 nM by envision reader analysis relative to control
# [28] = test system: A549; test: cells; conditions: Homo sapiens, A549, 72 h
# Description: Antiproliferative activity against human A549 cells assessed as cell viability incubated for 72 hrs by MTT assay
# [29] = Oral bioavailability in Sprague-Dawley rat at 50 mg/kg; assay type: ADME, organism-based; conditions: in vivo, po, 50 mg/kg
compound,measurement,setting,value
COC(=O)c1ccc2c(c1)NC(=O)/C2=C(\Nc1ccc(N(C)C(=O)CN2CCN(C)CC2)cc1)c1ccccc1 [NINTEDANIB],IC50,[1],3.46 µM
same,half-life,[2],1.76 h
same,IC50,[3],> 10 µM
same,IC50,[4],> 10 µM
same,IC50,[5],5.34 µM
same,IC50,[6],2.87 µM
same,IC50,[7],> 10 µM
same,half-life,[8],3.99 h
same,AUClast,[9],64.2 ng·h/mL
same,IC50,[10],10 µM
same,clearance,[11],111 mL/min/kg
same,Cmax,[12],64.2 ng/mL
same,IC50,[13],> 10 µM
same,Tmax,[14],2 h
same,IC50,[15],> 10 µM
same,IC50,[16],> 10 µM
same,IC50,[17],> 10 µM
same,IC50,[18],> 10 µM
same,Vd,[19],7.91 L/kg
same,inhibition in vivo at 50 mg/kg,[20],68.1%
same,IC50 at 72 h,[21],3.69 µM
same,IC50 at 72 h,[22],4.34 µM
same,Activity,[23],55.84%
same,half-life,[24],0.194 h
same,IC50,[25],> 10 µM
same,AUClast,[26],749 ng·h/mL
same,inhibition,[27],32.1%
same,IC50,[28],> 10 µM
same,F,[29],7.91%
